According to patent publication US8846949B2, “Pyrrolopyrazoles as N-type calcium channel blockers” (Janssen Pharmaceutica NV, priority 2012, dated 2014):
Like-named read-outs stand apart in the source and are kept apart here.

How the values were obtained:
[1] = target: T1, N-type calcium channel α1B (Cav2.2), β3 and α2δ subunits (Homo sapiens, UniProt Q00975); test: Functional assay, antagonism of N-type calcium channel (FDSS calcium mobilization response to KCl depolarization); format: cell-based; settings: for IC50: HEK stable cell line, 50 mM KCl depolarization, six-point concentration-response; for inhibition at 0.33 µM: 0.33 μM compound, FDSS, 50 mM KCl
T1 construct: expressed in transfected cells
T1 sequence (Q00975 whole entry): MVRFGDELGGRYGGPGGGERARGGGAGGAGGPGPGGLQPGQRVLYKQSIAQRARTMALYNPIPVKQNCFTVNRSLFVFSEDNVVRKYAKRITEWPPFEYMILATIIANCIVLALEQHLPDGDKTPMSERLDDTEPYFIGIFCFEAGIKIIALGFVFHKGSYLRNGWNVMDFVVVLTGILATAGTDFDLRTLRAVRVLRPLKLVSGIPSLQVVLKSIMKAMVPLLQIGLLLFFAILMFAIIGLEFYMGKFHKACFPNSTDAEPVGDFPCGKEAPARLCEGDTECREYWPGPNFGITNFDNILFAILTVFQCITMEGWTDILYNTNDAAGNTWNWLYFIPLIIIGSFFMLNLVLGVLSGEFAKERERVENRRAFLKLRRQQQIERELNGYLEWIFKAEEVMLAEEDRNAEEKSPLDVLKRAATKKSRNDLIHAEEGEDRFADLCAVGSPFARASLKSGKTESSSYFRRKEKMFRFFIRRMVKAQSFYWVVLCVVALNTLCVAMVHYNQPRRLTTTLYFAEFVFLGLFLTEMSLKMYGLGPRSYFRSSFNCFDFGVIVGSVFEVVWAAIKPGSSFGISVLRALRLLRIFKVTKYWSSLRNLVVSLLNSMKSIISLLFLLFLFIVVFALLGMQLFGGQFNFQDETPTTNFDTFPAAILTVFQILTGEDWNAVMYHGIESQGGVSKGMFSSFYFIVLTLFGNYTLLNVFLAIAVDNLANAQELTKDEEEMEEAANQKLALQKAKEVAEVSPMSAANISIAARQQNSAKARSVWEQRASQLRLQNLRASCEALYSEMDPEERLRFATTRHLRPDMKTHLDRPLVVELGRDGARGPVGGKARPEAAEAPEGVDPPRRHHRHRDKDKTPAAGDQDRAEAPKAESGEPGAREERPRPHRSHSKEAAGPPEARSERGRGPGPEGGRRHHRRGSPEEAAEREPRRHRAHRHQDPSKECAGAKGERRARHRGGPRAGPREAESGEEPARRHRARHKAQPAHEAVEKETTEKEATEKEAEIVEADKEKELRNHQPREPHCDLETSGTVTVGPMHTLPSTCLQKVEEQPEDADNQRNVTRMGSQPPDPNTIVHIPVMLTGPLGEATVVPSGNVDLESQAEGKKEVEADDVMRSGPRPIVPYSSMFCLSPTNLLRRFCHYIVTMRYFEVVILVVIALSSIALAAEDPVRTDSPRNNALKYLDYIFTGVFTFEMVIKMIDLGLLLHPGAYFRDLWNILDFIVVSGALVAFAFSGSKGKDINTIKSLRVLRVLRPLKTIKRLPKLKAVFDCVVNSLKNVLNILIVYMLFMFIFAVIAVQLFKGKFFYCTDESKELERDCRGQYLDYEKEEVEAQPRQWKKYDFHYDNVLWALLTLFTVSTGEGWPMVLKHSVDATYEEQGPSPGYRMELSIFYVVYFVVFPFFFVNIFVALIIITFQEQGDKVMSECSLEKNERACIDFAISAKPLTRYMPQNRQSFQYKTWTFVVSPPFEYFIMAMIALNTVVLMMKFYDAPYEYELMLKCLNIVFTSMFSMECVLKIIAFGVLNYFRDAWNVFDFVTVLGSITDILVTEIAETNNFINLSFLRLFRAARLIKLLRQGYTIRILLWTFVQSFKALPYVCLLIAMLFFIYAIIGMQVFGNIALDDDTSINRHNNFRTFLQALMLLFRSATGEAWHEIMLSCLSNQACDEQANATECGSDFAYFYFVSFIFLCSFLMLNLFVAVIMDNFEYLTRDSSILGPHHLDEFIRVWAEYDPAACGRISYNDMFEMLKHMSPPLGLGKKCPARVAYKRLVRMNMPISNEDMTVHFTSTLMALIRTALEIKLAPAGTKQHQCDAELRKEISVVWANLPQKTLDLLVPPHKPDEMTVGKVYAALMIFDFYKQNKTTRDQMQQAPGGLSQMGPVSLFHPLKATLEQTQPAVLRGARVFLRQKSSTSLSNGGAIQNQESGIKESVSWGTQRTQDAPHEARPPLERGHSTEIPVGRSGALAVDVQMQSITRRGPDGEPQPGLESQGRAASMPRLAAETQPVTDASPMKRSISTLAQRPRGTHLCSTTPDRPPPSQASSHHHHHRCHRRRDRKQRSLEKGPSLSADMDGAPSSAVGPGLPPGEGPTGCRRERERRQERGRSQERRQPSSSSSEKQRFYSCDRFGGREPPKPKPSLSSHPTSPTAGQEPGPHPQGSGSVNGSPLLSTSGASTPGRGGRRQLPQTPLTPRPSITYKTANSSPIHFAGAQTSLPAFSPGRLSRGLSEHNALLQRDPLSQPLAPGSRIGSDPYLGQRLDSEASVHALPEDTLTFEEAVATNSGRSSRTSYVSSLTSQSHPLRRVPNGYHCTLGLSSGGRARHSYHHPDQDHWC
T1 sequence (P54284 whole entry partner): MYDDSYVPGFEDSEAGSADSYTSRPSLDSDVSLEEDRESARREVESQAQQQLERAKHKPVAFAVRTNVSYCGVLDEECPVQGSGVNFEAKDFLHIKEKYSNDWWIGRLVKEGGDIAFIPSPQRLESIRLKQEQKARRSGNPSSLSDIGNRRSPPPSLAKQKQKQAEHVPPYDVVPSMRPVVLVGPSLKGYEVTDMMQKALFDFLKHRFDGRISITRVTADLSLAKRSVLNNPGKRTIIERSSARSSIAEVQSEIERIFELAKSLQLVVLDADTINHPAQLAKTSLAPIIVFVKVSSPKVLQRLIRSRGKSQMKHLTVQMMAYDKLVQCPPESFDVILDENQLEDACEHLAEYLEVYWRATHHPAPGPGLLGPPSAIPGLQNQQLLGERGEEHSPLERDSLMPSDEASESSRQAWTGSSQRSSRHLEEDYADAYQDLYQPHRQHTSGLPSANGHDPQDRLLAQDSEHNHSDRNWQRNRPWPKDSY
T1 sequence (P54289 25-956 partner limits assumed): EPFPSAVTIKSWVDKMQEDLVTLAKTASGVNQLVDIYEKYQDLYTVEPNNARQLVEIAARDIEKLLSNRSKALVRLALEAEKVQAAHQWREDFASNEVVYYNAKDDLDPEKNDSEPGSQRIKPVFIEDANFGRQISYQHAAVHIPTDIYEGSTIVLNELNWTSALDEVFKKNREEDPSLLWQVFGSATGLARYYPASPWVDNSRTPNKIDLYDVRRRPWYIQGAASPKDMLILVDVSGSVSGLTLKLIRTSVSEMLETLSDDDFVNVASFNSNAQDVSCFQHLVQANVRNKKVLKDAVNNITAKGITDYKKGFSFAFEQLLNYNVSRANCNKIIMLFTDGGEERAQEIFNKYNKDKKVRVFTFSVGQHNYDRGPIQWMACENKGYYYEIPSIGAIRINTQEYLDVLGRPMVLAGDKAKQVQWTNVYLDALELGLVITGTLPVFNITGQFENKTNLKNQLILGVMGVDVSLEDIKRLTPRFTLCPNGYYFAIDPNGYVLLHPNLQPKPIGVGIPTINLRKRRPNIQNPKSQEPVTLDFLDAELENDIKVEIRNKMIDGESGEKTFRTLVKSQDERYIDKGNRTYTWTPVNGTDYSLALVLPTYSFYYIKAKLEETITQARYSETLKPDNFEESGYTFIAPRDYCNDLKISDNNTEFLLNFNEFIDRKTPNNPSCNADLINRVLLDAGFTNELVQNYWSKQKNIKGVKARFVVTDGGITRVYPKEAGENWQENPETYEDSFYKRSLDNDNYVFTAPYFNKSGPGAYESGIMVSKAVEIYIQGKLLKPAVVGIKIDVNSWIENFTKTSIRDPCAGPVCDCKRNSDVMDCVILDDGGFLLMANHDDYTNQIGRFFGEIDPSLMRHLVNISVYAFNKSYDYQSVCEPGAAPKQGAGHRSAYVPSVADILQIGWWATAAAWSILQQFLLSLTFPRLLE
T1 sequence (P54289 957-1103 partner limits assumed): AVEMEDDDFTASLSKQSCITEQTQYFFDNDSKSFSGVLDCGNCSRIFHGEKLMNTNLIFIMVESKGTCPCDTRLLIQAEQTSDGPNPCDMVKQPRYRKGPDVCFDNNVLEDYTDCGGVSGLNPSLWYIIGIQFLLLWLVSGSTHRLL
How it was run: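 HEK cells stably co-expressing α1B (Cav2.2), β3 and α2δ subunits were loaded with calcium dye, preincubated with compound for 5 min, then depolarized with 50 mM KCl and read for 3 min by FDSS fluorescence. IC50 from six-point curves, normalized to KCl maximum and buffer minimum.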

N-type calcium channel = target: T2, N-type calcium channel (Homo sapiens, UniProt Q00975); test: Automated electrophysiology assay (QPatch-HT whole-cell patch clamp); format: cell-based
T2 construct: expressed in transfected cells
T2 sequence (Q00975 whole entry): as the sequence (Q00975 whole entry) above
T2 sequence (P54284 whole entry partner): as the sequence (P54284 whole entry partner) above
T2 sequence (P54289 25-956 partner limits assumed): as the sequence (P54289 25-956 partner limits assumed) above
T2 sequence (P54289 957-1103 partner limits assumed): as the sequence (P54289 957-1103 partner limits assumed) above
Description: Cells were grown in T175 flasks to 50%-90% confluence. At the time of use, cells were enzymatically treated with Detachin (Genlantis, San Diego, Calif. USA), centrifuged, rinsed, and resuspended in 293 SFM II media (Life Technologies, Grand Island, N.Y. U.S.A.) supplemented with 25 mM HEPES (Sigma-Aldrich, St. Louis, Mo. U.S.A.) to a concentration of 2-3×10^6 cells/mL. Cells were added to the automated cell preparation station on the QPatch-HT (Sophion Biosciences, North Brunswick, N.J. U.S.A.), and following a 10- to 30-min recovery period with gentle stirring, the assay protocol was initiated. During the automated cell preparation, cells were collected, centrifuged and resuspended in an extracellular (EC) solution containing 132 mM NaCl, 1.8 mM CaCl2, 5.4 mM KCl, 0.8 mM MgCl2, 10 mM glucose, and 10 mM HEPES (pH=7.4), adjusted with sucrose to approximately 315 m0sm. The QPlate was primed with an intracellular solution containing 135 mM CsCl, 10 mM EGTA, 4 MgATP, 0.3 NaGTP, and 20 mM HEPES (pH=7.2), adjusted to approximately 290 m0sm with deionized water and the EC solution. Cells were added to the prepared QPlate wells by robotic pipettes of the QPatch-HT.
For cells determined to be in stable whole-cell patch clamp, the EC solution was replaced with a barium (Ba)/triethylammonium (TEA) solution containing 140 mM TEA-Cl, 10 mM BaCl2, 0.8 mM MgCl2, 10 mM glucose and 10 mM HEPES (pH=7.4). High (40 mM) BaCl2 concentrations were made with adjustments to TEA-C1 (90 mM) to maintain the osmolarity. From a resting potential of −80 mV, a train of depolarizing pulses (15 pulses at 5 Hz, +20 mV) was delivered to the cell once every 30 sec for eight trains (4 min total), and the resulting currents were measured during a control period (no compound). This protocol was repeated for each subsequent addition of control buffer with or without compound (three periods total, each with four trains). The current generated in the 1st and 15th pulses of the last train of each period in the presence of each drug concentration was normalized to the current generated during the control period at the respective pulses (representing low- and high-frequency stimulation, respectively). Data from both the second and third drug application periods were analyzed for each cell. A final addition of Ba/TEA solution containing 60-100 μM CdCl2 was made to block all N-type current and to “zero” the currents for each cell. All buffer/compound additions were made using a “spitting” feature of the QPatch-HT, which added three repetitions of 5 μL solution at the beginning of each recording period.
To examine closed-state inactivation, cells were subjected to a channel-activating 50-msec depolarizing step pulse from −80 to +10 mV, followed by a 5-sec nonactivating step to voltages ranging from −130 to −60 mV in 10 mV increments and then a 50-ms step from −80 to +10 mV to assess the remaining current. Currents from the activating voltage pulse were normalized to the peak value of the test pulse following the −130 mV step and fit to a Boltzman equation to obtain the V1/2. Roscovitine (Sigma-Aldrich) was prepared as a 100 mM stock in dimethyl sulfoxide and diluted to the indicated working concentrations. […]. Compounds of Formula (I) were diluted first into dimethyl sulfoxide and then into 10% pluronic F-127 in water (Life Technologies), sonicated for 1 min and diluted into EC buffer. Vehicle controls were run in parallel in all experiments.
Unless otherwise indicated, statistics for comparing among electrophysiological results utilized a one-way analysis of variance with Fisher's least squares determination test for pair-wise comparison.

[2] = high frequency (15th pulse of train, 5 Hz), read-out: QPatch at High Frequency % Inhibition
[3] = low frequency (1st pulse of train), read-out: QPatch at Low Frequency % Inhibition

SMILES	IC50 [1] [nM]	inhibition at 0.1 µM (N-type calcium channel; [2]) [%]	inhibition at 0.1 µM (N-type calcium channel; [3]) [%]	inhibition at 0.33 µM [1] [%]	inhibition at 1 µM (N-type calcium channel; [2]) [%]	inhibition at 1 µM (N-type calcium channel; [3]) [%]
COc1ccccc1-n1nc2c(c1-c1ccc(Cl)cc1)CN(S(=O)(=O)N1CCCC1)C2 [Cpd 60, 3-(4-Chlorophenyl)-2-(2-methoxyphenyl)-5-(pyrrolidin-1-ylsulfonyl)-2,4,5,6-tetrahydropyrrolo[3,4-c]pyrazole]	2	44	29			
COc1ccccc1-n1nc2c(c1-c1ccc(Cl)cc1)CN(S(=O)(=O)N1CCCCC1)C2 [Cpd 62, 3-(4-Chlorophenyl)-2-(2-methoxyphenyl)-5-(piperidin-1-ylsulfonyl)-2,4,5,6-tetrahydropyrrolo[3,4-c]pyrazole]	4	45	20			
COc1cc(Cl)ccc1-n1nc2c(c1-c1ccc(Cl)cc1)CN(S(=O)(=O)C(C)C)C2 [Cpd 64, 2-(4-Chloro-2-methoxyphenyl)-3-(4-chlorophenyl)-5-[(1-methylethyl)sulfonyl]-2,4,5,6-tetrahydropyrrolo[3,4-c]pyrazole]	33	24	12	86		
COc1cc(Cl)ccc1-n1nc2c(c1-c1ccc(Cl)cc1)CN(S(=O)(=O)N(C)C)C2 [Cpd 65, 2-(4-Chloro-2-methoxyphenyl)-3-(4-chlorophenyl)-N,N-dimethyl-2,6-dihydropyrrolo[3,4-c]pyrazole-5(4H)-sulfonamide]	150	1	-8	74		
COc1cc(F)ccc1-n1nc2c(c1-c1ccc(Cl)cc1)CN(S(=O)(=O)C(C)C)C2 [Cpd 71, 3-(4-Chlorophenyl)-2-(4-fluoro-2-methoxyphenyl)-5-[(1-methylethyl)sulfonyl]-2,4,5,6-tetrahydropyrrolo[3,4-c]pyrazole]	21	1	-30	91		
COc1cc(F)ccc1-n1nc2c(c1-c1ccc(Cl)cc1)CN(S(=O)(=O)N1CCC(C)CC1)C2 [Cpd 73, 3-(4-Chlorophenyl)-2-(4-fluoro-2-methoxyphenyl)-5-[(4-methylpiperidin-1-yl)sulfonyl]-2,4,5,6-tetrahydropyrrolo[3,4-c]pyrazole]	24	-28	-34	93		
CCCC(C)S(=O)(=O)N1Cc2nn(-c3ccc(C)cc3OC)c(-c3ccc(Cl)cc3)c2C1 (stereo not drawn) [Cpd 76, 3-(4-Chlorophenyl)-2-(2-methoxy-4-methylphenyl)-5-[(1-methylbutyl)sulfonyl]-2,4,5,6-tetrahydropyrrolo[3,4-c]pyrazole]	21			90	30	-3
CC(C)S(=O)(=O)N1Cc2nn(-c3cccc4c3OCO4)c(-c3ccc(Cl)cc3)c2C1 [Cpd 81, 2-(1,3-Benzodioxol-4-yl)-3-(4-chlorophenyl)-5-[(1-methylethyl)sulfonyl]-2,4,5,6-tetrahydropyrrolo[3,4-c]pyrazole]	20		-19	89		
CC(C)CS(=O)(=O)N1Cc2nn(-c3cccc4c3OCO4)c(-c3ccc(Cl)cc3)c2C1 [Cpd 82, 2-(1,3-Benzodioxol-4-yl)-3-(4-chlorophenyl)-5-[(2-methylpropyl)sulfonyl]-2,4,5,6-tetrahydropyrrolo[3,4-c]pyrazole]	28	15	4	87		
CC1CCN(S(=O)(=O)N2Cc3nn(-c4cccc5c4OCO5)c(-c4ccc(Cl)cc4)c3C2)CC1 [Cpd 83, 2-(1,3-Benzodioxol-4-yl)-3-(4-chlorophenyl)-5-[(4-methylpiperidin-1-yl)sulfonyl]-2,4,5,6-tetrahydropyrrolo[3,4-c]pyrazole]	20	27	12	92		
CC(C)S(=O)(=O)N1Cc2nn(-c3cccc4c3OCC4)c(-c3ccc(Cl)cc3)c2C1 [Cpd 84, 3-(4-Chlorophenyl)-2-(2,3-dihydro-1-benzofuran-7-yl)-5-[(1-methylethyl)sulfonyl]-2,4,5,6-tetrahydropyrrolo[3,4-c]pyrazole]	10	7	-3	94		
CC(C)CS(=O)(=O)N1Cc2nn(-c3cccc4c3OCC4)c(-c3ccc(Cl)cc3)c2C1 [Cpd 85, 3-(4-Chlorophenyl)-2-(2,3-dihydro-1-benzofuran-7-yl)-5-[(2-methylpropyl)sulfonyl]-2,4,5,6-tetrahydropyrrolo[3,4-c]pyrazole]	14	37	13	94		
CC1CCN(S(=O)(=O)N2Cc3nn(-c4cccc5c4OCC5)c(-c4ccc(Cl)cc4)c3C2)CC1 [Cpd 86, 3-(4-Chlorophenyl)-2-(2,3-dihydro-1-benzofuran-7-yl)-5-[(4-methylpiperidin-1-yl)sulfonyl]-2,4,5,6-tetrahydropyrrolo[3,4-c]pyrazole]	7	33	20	96		
COc1ccccc1-n1nc2c(c1-c1ccc(Cl)cc1)CN(S(=O)(=O)c1c(C)noc1C)C2 [Cpd 87, 3-(4-Chlorophenyl)-5-[(3,5-dimethylisoxazol-4-yl)sulfonyl]-2-(2-methoxyphenyl)-2,4,5,6-tetrahydropyrrolo[3,4-c]pyrazole]	17	49	31	89		
CC(C)S(=O)(=O)N1Cc2nn(-c3ccccc3N(C)C)c(-c3ccc(Cl)cc3)c2C1 [Cpd 88, 2-[3-(4-Chlorophenyl)-5-[(1-methylethyl)sulfonyl]-5,6-dihydropyrrolo[3,4-c]pyrazol-2(4H)-yl]-N,N-dimethylaniline]	5	47	26	96		
CCS(=O)(=O)N1Cc2nn(-c3ccccc3N(C)C)c(-c3ccc(Cl)cc3)c2C1 [Cpd 89, 2-[3-(4-Chlorophenyl)-5-(ethylsulfonyl)-5,6-dihydropyrrolo[3,4-c]pyrazol-2(4H)-yl]-N,N-dimethylaniline]	28	34	10	90		
COc1ccccc1-n1nc2c(c1-c1ccc(Cl)nc1)CN(S(=O)(=O)C(C)C)C2 [Cpd 92, 3-(6-Chloropyridin-3-yl)-2-(2-methoxyphenyl)-5-[(1-methylethyl)sulfonyl]-2,4,5,6-tetrahydropyrrolo[3,4-c]pyrazole]	16	10	14	86		
CN(C)S(=O)(=O)N1Cc2nn(-c3ccccc3OCC(F)F)c(-c3ccc(Cl)cc3)c2C1 [Cpd 95, 3-(4-Chlorophenyl)-2-[2-(2,2-difluoroethoxy)phenyl]-N,N-dimethyl-2,6-dihydropyrrolo[3,4-c]pyrazole-5(4H)-sulfonamide]	50	23	-4	79		
